Reference: patent publication US12043670B2, “Anti-BCMA antibody-drug conjugates and methods of use” (Eisai R&D Management Co., Ltd., priority 2020, dated 2024)
Read-outs that look alike come from different tables or passages of the source.

Assays:
KMS-11 cells = assay: 6-day CellTiter-Glo cell viability, KMS-11; format: cell-based, human
NCI-H929 cells = assay: CellTiter-Glo cell viability, NCI-H929 (normal serum); format: cell-based, human; details: for GI50: Homo sapiens
AMO-1 cells = assay: 6-day CellTiter-Glo cell viability, AMO-1; format: cell-based, human
MM1.S cells = assay: CellTiter-Glo cell viability, MM1.S; format: cell-based, human; details: for GI50: Homo sapiens
EJM cells = assay: 6-day CellTiter-Glo cell viability, EJM; format: cell-based, human
LP-1 cells = assay: 6-day CellTiter-Glo cell viability, LP-1; format: cell-based, human
MOLP8 cells = assay: CellTiter-Glo cell viability, MOLP8; format: cell-based, human
[1] = tested on: splicing of Ad2.1 pre-mRNA in HeLa nuclear extract; assay: In vitro splicing (IVS), qPCR readout, Ad2.1 substrate; format: biochemical
Experimental: To evaluate payload activity in a cell-free system, an in vitro splicing assay was performed. The payloads were incubated with nuclear extracts and pre-mRNA substrate minigenes.
HeLa nuclear extract preparation: HeLa S3 cell pellets were resuspended in hypotonic buffer (10 mM HEPES pH 7.9, 1.5 mM MgCl2, 10 mM KCl, 0.2 mM PMSF, 0.5 mM DTT) and the suspension was brought up to a total of 5 packed cell volume (PCV). After centrifugation, the supernatant was discarded, and the cells were brought up to 3 PCV with hypotonic buffer and incubated on ice for 10 min. Cells were lysed using a dounce homogenizer and then centrifuged. The supernatant was discarded, and the pellet was resuspended with ½ packed nuclear volume (PNV) of low salt buffer (20 mM HEPES pH 7.9, 1.5 mM MgCl2, 20 mM KCl, 0.2 mM EDTA, 25% glycerol, 0.2 mM PMSF, 0.5 mM DTT), followed by ½ PNV of high salt buffer (same as low salt buffer except 1.4 M KCl). The nuclei were gently mixed for 30 min before centrifuging. The supernatant (nuclear extract) was then dialyzed into storage buffer (20 mM HEPES pH 7.9, 100 mM KCl, 0.2 mM EDTA, 20% glycerol, 0.2 mM PMSF, 0.5 mM DTT). Protein concentration was determined using NanoDrop 8000 UV-Vis spectrophotometer (ThermoFisher Scientific). […]

In the case of `CC[C@H](O)[C@@H](C)[C@H]1O[C@@H]1C[C@@](C)(O)/C=C/C=C(\C)[C@H]1OC(=O)C[C@H](O)CC[C@@](C)(O)[C@@H](OC(=O)N2CCNCC2)/C=C/[C@@H]1C` [D1, (2S,3S,6S,7R,10R,E)-7,10-dihydroxy-2-((R,2E,4E)-6-hydroxy-7-((2R,3R)-3-((2R,3S)-3-hydroxypentan-2-yl)oxiran-2-yl)-6-methylhepta-2,4-dien-2-yl)-3,7-dimethyl-12-oxooxacyclododec-4-en-6-yl piperazine-1-carboxylate], the GI50 (KMS-11 cells; Homo sapiens, KMS-11, 144 h) is reported as 232 nM, the “AUC (nM * % relative viability)” value (KMS-11 cells; KMS11 cells, 6 days) is reported as 706.5255 nM * % relative viability and the LD50 (KMS-11 cells; KMS11 cells, 6 days, CellTiter-Glo) is reported as 485.9409 nM. For the same compound, the RminAve (KMS-11 cells; KMS11 cells, 6 days, negative = cell death vs T0) was −99.3474%, the GI50 (NCI-H929 cells; NCI-H929, 96 h, read-out: CTGlo Mean GI50 H929 96 h) was 75.5 nM and the GI50 (NCI-H929 cells; NCI-H929, 144 h) was 119 nM. For the same compound, the “AUC (nM * % relative viability)” value (NCI-H929 cells; NCIH929 cells, 6 days) was 646.6007 nM * % relative viability, the LD50 (NCI-H929 cells; NCIH929 cells, 6 days, CellTiter-Glo) was 246.6292 nM and the RminAve (NCI-H929 cells; NCIH929 cells, 6 days, negative = cell death vs T0) was −99.8009%. For the same compound, the “CTGlo Mean LD50 H929 96 h” value (NCI-H929 cells; payload alone, H929, 96 h) was 201 nM, the “AUC (nM * % relative viability)” value (AMO-1 cells; AMO1 cells, 6 days) was 797.7136 nM * % relative viability and the LD50 (AMO-1 cells; AMO1 cells, 6 days, CellTiter-Glo) was 1689.735 nM. The RminAve (AMO-1 cells; AMO1 cells, 6 days, negative = cell death vs T0) was −99.4709%, the GI50 (AMO-1 cells; Homo sapiens, AMO1, 144 h) was 567 nM and the GI50 (MM1.S cells; MM1.S, 96 h, read-out: CTGlo Mean GI50 MM1.S 96 h) was 37.1 nM. For the same compound, the GI50 (MM1.S cells; MM1.S, 144 h) was 88.4 nM, the “AUC (nM * % relative viability)” value (MM1.S cells; MM1S cells, 6 days) was 644.3501 nM * % relative viability and the LD50 (MM1.S cells; MM1S cells, 6 days, CellTiter-Glo) was 302.924 nM. For the same compound, the RminAve (MM1.S cells; MM1S cells, 6 days, negative = cell death vs T0) was −99.8996%, the “CTGlo Mean LD50 MM1.S 96 h” value (MM1.S cells; payload alone, MM1.S, 96 h) was 98.2 nM and the “AUC (nM * % relative viability)” value (EJM cells; EJM cells, 6 days) was 664.163 nM * % relative viability. The LD50 (EJM cells; EJM cells, 6 days, CellTiter-Glo) was 303.5191 nM, the RminAve (EJM cells; EJM cells, 6 days, negative = cell death vs T0) was −99.0579% and the GI50 (EJM cells; Homo sapiens, EJM, 144 h) was 140 nM. The GI50 (LP-1 cells; Homo sapiens, LP-1, 144 h) was 112 nM, the “AUC (nM * % relative viability)” value (LP-1 cells; LP1 cells, 6 days) was 643.9226 nM * % relative viability and the LD50 (LP-1 cells; LP1 cells, 6 days, CellTiter-Glo) was 234.5168 nM. The RminAve (LP-1 cells; LP1 cells, 6 days, negative = cell death vs T0) was −99.7195%, the GI50 (MOLP8 cells; Homo sapiens, MOLP-8, 144 h) was 150 nM and the “AUC (nM * % relative viability)” value (MOLP8 cells; MOLP8 cells, 6 days) was 690.1106 nM * % relative viability. The LD50 (MOLP8 cells; MOLP8 cells, 6 days, CellTiter-Glo) was 533.6503 nM, the RminAve (MOLP8 cells; MOLP8 cells, 6 days, negative = cell death vs T0) was −99.755% and the IC50 [1] was 16.5 nM.
